This test has as its target T1, MAP kinase-interacting serine/threonine-protein kinase 1 [T344D] (Homo sapiens, UniProt Q9BUB5, T344D).
T1 construct: gene MKNK1
In words: MKNK1 Kinase High ATP Assay. To be noted: pH 7.5. An excerpt: TBDA recombinant fusion protein of Glutathione-S-Transferase (GST, N-terminally) and human full-length MKNK1 (amino acids 1-424 and T344D of accession number BAA 19885.1), expressed in insect cells using baculovirus expression system and purified via glutathione sepharose affinity chromatography, was purchased from Carna Biosciences (product no 02-145) and used as enzyme. As substrate for the kinase reaction the biotinylated peptide biotin-Ahx-IKKRKLTRRKSLKG (C-terminus in amide form) was used, which can be purchased e.g. from the company Biosyntan (Berlin-Buch, Germany).For the assay 50 nL of a 100 fold concentrated solution of the test compound in DMSO was pipetted into a black low volume 384 well microtiter plate (Greiner Bio-One, Frickenhausen, Germany), 2 μL of a solution of MKNK1 in aqueous assay buffer [50 mM HEPES pH 7.5, 5 mM MgCl2, 1.0 mM dithiothreitol, 0.005% (v/v) Nonidet-P40 (Sigma)] was added and the mixture was incubated for 15 min at 22° C. to allow pre-binding of the test compounds to the enzyme before the start of the kinase reaction. Then the kinase reaction was started by the addition of 3 μL of a solution of adenosine-tri-phosphate (ATP, 3.3 mM=>final conc. in the 5 μL assay volume is 2 mM) and substrate (0.1 μM=>final conc. in the 5 μL assay volume is 0.06 μM) in assay buffer and the resulting mixture was incubated for a reaction time of 30 min at 22° C. […]

T1 sequence (Q9BUB5 whole entry, looked up, stated change not applied): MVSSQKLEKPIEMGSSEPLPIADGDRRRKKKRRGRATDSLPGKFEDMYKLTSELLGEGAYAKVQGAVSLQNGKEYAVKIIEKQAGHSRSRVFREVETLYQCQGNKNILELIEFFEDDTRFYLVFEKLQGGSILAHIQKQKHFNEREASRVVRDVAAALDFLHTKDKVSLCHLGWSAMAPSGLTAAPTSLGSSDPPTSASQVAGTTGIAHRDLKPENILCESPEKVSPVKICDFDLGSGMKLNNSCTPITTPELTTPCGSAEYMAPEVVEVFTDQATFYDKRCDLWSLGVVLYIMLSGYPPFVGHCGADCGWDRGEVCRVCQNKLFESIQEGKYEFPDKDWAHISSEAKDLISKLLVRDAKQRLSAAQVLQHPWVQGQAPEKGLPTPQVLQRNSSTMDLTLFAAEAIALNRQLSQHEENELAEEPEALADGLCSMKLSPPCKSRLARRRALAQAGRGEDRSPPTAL

By IC50 is commonly meant the concentration that inhibits the measured activity by half. For `COc1cc2[nH]ncc2cc1Nc1ncnc2[nH]ncc12` [US9556181, 2], the half-maximal inhibitory concentration (IC50) stood at 0.049 µM.
